Laboratory results reported in patent US20240173435A1, “GENE DELIVERY FOR PREVENTION AND TREATMENT OF BALDNESS” (NEW JERSEY INSTITUTE OF TECHNOLOGY, priority 2022, published 2024).

Key:
[1] = Ionizable cationic lipid library screening, in vitro delivery of luciferase mRNA (mLuc); assay type: cell-based; conditions: 18*8 library, lipid:DOPE:cholesterol:DMG-PEG 50:10:38.5:1.5
Description: An ionizable cationic lipid is generally composed of three parts: (1) hydrophilic headgroups containing one or multiple ionizable amines for condensing negatively charged mRNA; (2) hydrophobic hydrocarbon chains capable of promoting self-assembly and phospholipid membrane fusion; (3) degradable ester linkers connecting the headgroups with hydrocarbon chains to potentially lower systemic cytotoxicity (FIG. 8b). A new library of ionizable cationic lipids is designed, where the ionizable amine headgroups originated from different amino alcohols and the hydrocarbon lipid chains were derived from commercially available lipid acids. Through CALB enzyme-assisted reaction, the hydroxyl groups were reacted with carboxylic acids via one-step high-efficiency esterification (FIG. 8a) and an 18*8 library of lipid-like materials was synthesized by varying amino alcohols and lipid acids (ACS Nano, 16 (11) 18936-18950). Preliminarily, these lipid-like materials with DOPE, cholesterol, and DMG-PEG were fabricated at a molar ratio of 50:10:38.5:1.5, which was the most widely used formulation to form LNPs and delivered luciferase encoded mRNA (mLuc) in vitro to generate a luciferase expression heat map of lipid-like materials.

Androgen Receptor gene = assay: Knockout percentage by Sanger sequencing and ICE analysis of GFP-positive sorted cells; assay type: cell-based, human; conditions: GFP-positive sorted HEK 293T cells, ICE analysis, n=5
Method: Cas9 mRNA was purchased from Tri-Link Biotechnologies. Guide RNAs, which target the 1st coding exon in both human and mouse AR genes, were designed so that any frameshift mutation would result in early termination of translation. All gRNAs were obtained from Synthego with “end-modified” synthesis where the first and last three bases of these gRNA were synthesized using 2′-O-Methyl-nucleosides and joined via 3′ phosphorothioate bonds.
The in vitro transfection efficacy was evaluated in the HEK 293 cell line by delivering plasmid PX458 integrated with GFP, Cas9 and gRNA sequence, utilizing nanoparticles. Briefly, 1×10^5 HEK 293 cells were seeded into each well of 24-well plate with 0.5 mL complete culture medium and incubated at 37° C. overnight to allow cell attachment. Then the LNPs were seeded at 24 h. The transfected GFP positive cells were observed under All-in-One Fluorescence Microscope (BZ-X710, Keyence, Japan) at predetermined time points with brightfield, fluorescent and merged channels using 10×PanFluor lens (Nikon, Japan). […] The cell pellets were resuspended in 0.5 mL PBS for flow cytometric analysis using a BD LSR II flow cytometer (BD Biosciences, San Jose, CA) and the data were analyzed using FACSDiva software (BD Biosciences, San Jose, CA). […]

| luciferase expression rank in lipid library screen [1] | Molecule | knockout (percentage of transfected cells showing insertion or deletion) (Androgen Receptor gene) [%] |
| --- | --- | --- |
| top-performing | CCCCC/C=C/C/C=C/CCCCCCCC(=O)OCCN1CCN(CCOC(=O)CCCCCCC/C=C/C/C=C/CCCCC)CC1 [AA3-DLin] | – |
| – | GAGCGTGCGCGAAGCGATCC (guide GAGCGUGCGCGAAGCGAUCC; listed as RNA, chemistry not fully specified) [sgRNA2, PAM AGG, strand +] | ~51 |
| – | TGATCCAGAACCCGGGCCCC (guide UGAUCCAGAACCCGGGCCCC; listed as RNA, chemistry not fully specified) [sgRNA1, PAM AGG, strand +] | ~76 |
